Results taken from patent publication US10072044B2, “Modified kisspeptin peptides and uses thereof” (Yeda Research and Development Co. Ltd., priority 2012, dated 2018).
Entries after “also recorded” stand apart in the source; their conditions may differ. Bridge positions count the residues as written; N and C are the ends. Ends that are not written are not given here.

How the values were obtained:
mice [1] = experiment: Rotarod (forced activity); type: in vivo, mouse
Experimental: Forced activity (Rotarod) was analyzed using the Rotarod apparatus (Jones and Roberts 7650, Ugo Basile, Italy). Animals were placed on an accelerating rod, and time required for each mouse to fall from the rod was recorded. Out of three trails, the longest time taken for an animal to fall from the rod was recorded and used for analysis.

mice [2] = experiment: Catalepsy (bar test); type: in vivo, mouse
Experimental: Catalepsy is a state of immobility, and was measured by means of the bar test. The forepaws of the animal were placed on a bar (0.75 cm in diameter and 5 cm above the floor) and the latency until the mouse moved the forepaws off the bar was measured.

mice [3] = experiment: Open-field test (spontaneous activity); type: in vivo, mouse
Excerpt: The open-field apparatus consisted of a white Plexiglas box (40×40×30 cm) with 16 squares (10×10 cm) painted on the floor (12 outer and 4 inner). Each mouse was placed in the center of the apparatus to initiate a 15-min test session. The number of entrances to the inner squares, time (min) spent in the inner squares, and total distance moved within the field (cm) were monitored.

[4] = system: MK-801 treated C57BL/6J mice; experiment: PPI in the MK-801 drug-induced model of schizophrenia; type: in vivo, mouse
Experimental: MK-801 (Sigma) was used at 0.1 mg/kg and administered 15 min prior to the PPI analysis.
(§1) Acoustic startle response testing was performed within startle chambers purchased from Med Associates, Inc. (Med Associates, St. Albans, Vt., USA), as described in Cardon et al., 2010. During a period of acclimation, a 65-decibel (dB) background noise was presented for 5-min, and continued throughout the test session. All sessions for testing of acoustic startle response consisted of startle trials (pulse alone, 40-milliseconds (ms), 120-dB), prepulse trials (prepulse 20-ms, 69, 73, 78, or 81 dB followed by a [100-ms delay] pulse), and no-stimulus trials. All sessions were presented in pseudo-random order. The average time between trials was 15 seconds (range 12-30 seconds). Startle response was calculated from the reaction to the first pulse-alone trial.
(§2) PPI was calculated as: % PPI=100−{[(startle response for prepulse+pulse)/(startle response for pulse-alone)]×100}. Reduced PPI indicates schizophrenia-related behavior.
MK-801 (an antagonist of the N-methyl-D-aspartate (NMDA) receptor channel) acts as a psychomimetic agent, inducing psychotic symptoms that mimic the cognitive impairment and behavioral abnormalities associated with schizophrenia.
The neurotransmitter imbalance induced by MK-801 causes PPI dysfunction, one of the characteristic features of patients with schizophrenia. In an experiment depicted in FIG. 2, C57BL/6J mice were injected with Kp-10 (13 μg/mouse, light gray bars), or with Peptides 6 (8.75 μg/mouse, medium gray bars) or 8 (8.75 μg/mouse, dark gray bars) dissolved in DMSO and then diluted in PBS to a final concentration of 0.2% (w/v) DMSO; the control group received 0.2% DMSO in PBS (black bars). After 15 min, MK-801 (0.1 mg/kg) was injected; 15 min later, measurement of the PPI was performed.

mice [5] = experiment: Sedative effect (sedative score); conditions: data not shown
Experimental: Sedative effect was evaluated by observing the mice and scoring their sedative state as follows: 0, spontaneous movement; 1, mild intermittent spontaneous movement; 2, severe intermittent spontaneous movement; 3, no spontaneous movement; 4, loss of auditory reflex; 5, loss of corneal reflex; 6, loss of response to tail pinch.
Sedative effect was evaluated by observing the animal using a sedative score.

[6] = Plasma stability (HPLC, Cerep); type: in vitro ADME; conditions: 1 μM in human plasma
Experimental: 1 μM Peptide 6 was dissolved in human plasma, and peptide concentration was analyzed by HPLC after 0, 0.5, 1, 1.5, 2 h of incubation. The assay was performed by Cerep, Inc (Redmond, Wash., U.S.A).

C57Bl/6J naïve mice = experiment: Acoustic startle response / prepulse inhibition (PPI) in naïve mice; type: in vivo, mouse; conditions: 30 min before test, prepulse 69, 73, 78 or 81 dB
Experimental: as §1, §2
To test Peptide 2 (SEQ ID NO: 10), the peptide was dissolved in DMSO and then diluted in PBS to a final concentration of 1% (w/v) DMSO. Male C57Bl/6J naïve mice were injected intraperitoneally with 15 μg of the peptide or with 1% DMSO in PBS (control). Prepulse intensity analysis was performed after 30 minutes at 69, 73, 78 or 81 decibels. […]

BDNF mRNA = conditions: hippocampal slices (Arai et al., 2009); cited from earlier work
several mouse models = conditions: Kp-10, WO 2010/137022; cited from earlier work
naïve mice = conditions: Kp-10, WO 2010/137022 (FIG. 10C); dose equivalent to 0.29 mg/kg Peptide 6; cited from earlier work
[7] = system: SCID mice that have impaired PPI response and several schizophrenia mouse models; conditions: Kp-10 administration, WO 2010/137022; cited from earlier work
[8] = Kp-10, after 60 min (Chan et al., 2011); cited from earlier work
[9] = 13 μg/mouse, MK-801 0.1 mg/kg after 15 min, PPI 15 min later

O=C(CCCN1CCC(O)(c2ccc(Cl)cc2)CC1)c1ccc(F)cc1 [Haloperidol]
forced activity in the Rotarod (mice [1]; 1 mg/kg i.p.): reduced mice activity
catalepsy effect (mice [2]; 1 mg/kg i.p.): had catalepsy effects
spontaneous activity in the open field (mice [3]; 1 mg/kg i.p.): reduced mice activity

C[C@]12N[C@H](Cc3ccccc31)c1ccccc12 [MK-801]
PPI response compared to PBS injected control ([4]; MK-801 alone 0.1 mg/kg, 15 min before PPI): the PPI response was reduced compared to the PBS injected control

Cc1cc2c(s1)Nc1ccccc1N=C2N1CCN(C)CC1 [Olanzapine]
highest dose that can be injected without causing sedative effects (chosen dose) (mice [5]): 0.375 mg/kg

CC(C)C[C@@H]1NC(=O)CNC(=O)[C@H](Cc2ccccc2)NC(=O)[C@@H](N)Cc2ccc(cc2)N=Nc2cc(ccc2O)C[C@@H](C(N)=O)NC(=O)[C@H](Cc2c[nH]c3ccccc23)NC(=O)[C@H](CCCNC(=N)N)NC1=O [Peptide 6, Pap-Phe-Gly-Leu-Arg-Trp-Tyr-NH2]
forced activity in the Rotarod (mice [1]; 0.29 and 2.9 mg/kg i.p.): did not affect activity level
catalepsy effect (mice [2]; 0.29 and 2.9 mg/kg i.p.): did not have catalepsy effect at either dosage tested
% Mean Compound Remaining ([6]; incubation time 0 minutes): 100.0%
remaining at 0.5 h, 1 μM ([6]; incubation time 30 minutes, read-out: % Mean Compound Remaining): 119%
% Mean Compound Remaining ([6]; incubation time 60 minutes): 94%
remaining at 1 h, 1 μM ([6]; incubation time 60 minutes, read-out: % Mean Compound Remaining): 93.7%
remaining at 1.5 h, 1 μM ([6]; incubation time 90 minutes, read-out: % Mean Compound Remaining): 97.2%
remaining at 2 h, 1 μM ([6]; incubation time 120 minutes, read-out: % Mean Compound Remaining): 71.8%
half-life ([6]; read-out: calculated half-life): > 2 h
spontaneous activity in the open field (mice [3]; 0.29 and 2.9 mg/kg i.p.): did not affect activity level

Cc1nc2n(c(=O)c1CCN1CCC(c3noc4cc(F)ccc34)CC1)CCCC2 [Risperidone]
PPI in MK-801 treated mice ([4]; 0.1 mg/kg i.p. with MK-801 (FIG. 4B)): elevated PPI in the MK-801 treated mice
highest dose that can be injected without causing sedative effects (chosen dose) (mice [5]): 0.1 mg/kg

Peptide 2: cystine (S—S) cyclic modified Kp-10 derived peptide, used for comparison only (CYNWNSFGLRFC-NH2; disulfide 1-12; N-terminus assumed; SMILES CC(C)C[C@@H]1NC(=O)CNC(=O)[C@H](Cc2ccccc2)NC(=O)[C@H](CO)NC(=O)[C@H](CC(N)=O)NC(=O)[C@H](Cc2c[nH]c3ccccc23)NC(=O)[C@H](CC(N)=O)NC(=O)[C@H](Cc2ccc(O)cc2)NC(=O)[C@@H](N)CSSC[C@@H](C(N)=O)NC(=O)[C@H](Cc2ccccc2)NC(=O)[C@H](CCCNC(=N)N)NC1=O)
% PPI relative to controls (C57Bl/6J naïve mice; 15 μg peptide i.p. in 1% DMSO in PBS): slightly improved the % PPI relative to controls, however, the effect was not significant; also recorded: did not significantly improve the PPI response

Peptide 5: cystine (S—S) cyclic modified Kp-10 derived peptide, used for comparison only (CFGLRWC-NH2; disulfide 1-7; N-terminus assumed; SMILES CC(C)C[C@@H]1NC(=O)CNC(=O)[C@H](Cc2ccccc2)NC(=O)[C@@H](N)CSSC[C@@H](C(N)=O)NC(=O)[C@H](Cc2c[nH]c3ccccc23)NC(=O)[C@H](CCCNC(=N)N)NC1=O)
% PPI relative to controls (C57Bl/6J naïve mice; 8.3 μg peptide i.p. in 1% DMSO in PBS): slightly improved the % PPI at 73, 78 and 81 decibels relative to controls, however, the effect was not significant; also recorded: did not significantly improve the PPI response

YNWNSFGLRF-NH2 [Kp-10]
BDNF mRNA levels (BDNF mRNA): elevate BDNF mRNA levels
spatial learning and memory in a water maze (several mouse models): improves spatial learning and memory in a water maze
antidepressant effect / total immobility in tail suspension test (naïve mice): antidepressant effect; also recorded: potential anti-depressive activity; also recorded: reduced the total immobility
PPI response levels [7]: improved PPI response levels
PPI compared to MK-801 treated animals [4, 9]: significantly improved PPI compared to the MK-801 treated animals; also recorded: significantly improved PPI compared to animals treated only with MK-801
PPI compared to control without MK-801 (restoration to normal) [4, 9]: improved PPI after MK-801 administration but did not abolish its affect
level after 60 min [8]: below detectable level
